Experimental data published in patent publication US20240108623A1, “METHODS OF TREATING CANCER WITH POZIOTINIB” (BOARD OF REGENTS, THE UNIVERSITY OF TEXAS SYSTEM, priority 2021, published 2024).

How the values were obtained:
[1] = tested on: PDXs harboring EGFR S768dupSVD exon 20 loop insertion mutation; experiment: PDX tumor growth; assay type: in vivo, mice; conditions: drug 5 days per week, day 21
[2] = tested on: exon 20 loop insertion mutations; experiment: Ba/F3 drug screening, mutant/WT IC50 by class of EGFR TKI; assay type: cell-based; conditions: Ba/F3 cells expressing exon 20 loop insertion mutations
Experimental: Ba/F3 cell generation, drug screening, and IC50 approximations. Ba/F3 cells were obtained as a gift from Dr. Gordon Mills (MD Anderson Cancer Center), and maintained in RPMI (Sigma) containing 10% FBS, 1% penicillin/streptomycin, and 10 ng/ml recombinant mIL-3 (R&D Biosystems). To establish stable Ba/F3 cell lines, Ba/F3 cells were transduced with retroviruses containing mutant EGFR plasmids for 12-24 hours. Retroviruses were generated using Lipofectamine 2000 (Invitrogen) transfections of Phoenix 293T-ampho cells (Orbigen) with pBabe-Puro based vectors listed below in Table 6. Vectors were generated by GeneScript or Bioinnovatise using parental vectors from Addgene listed below in Table 6.
After 48-72 hours of transduction, 2 μg/ml puromycin (Invitrogen) was added to Ba/F3 cell lines in complete RPMI. To select for EGFR positive cell lines, cells were stained with PE-EGFR (Biolegend) and sorted by FACS. […] Plates were incubated for a minimum of 10 minutes, and bioluminescence was determined using a FLUOstar OPTIMA plate reader (BMG LABTECH). […] Statistical differences between groups were determined by ANOVA as described in the figure legends.
Heatmap generation and spearman correlations of groups. […] Hierarchical clustering was determined by Euclidean distance between Mut/WT ratios. […]

[3] = tested on: PDXs with G719A mutations; experiment: PDX tumor growth; assay type: in vivo, mice; conditions: 2.5 mg/kg poziotinib; 5 mg/kg and 20 mg/kg osimertinib; five days per week, day 28

C=CC(=O)N1CCC(Oc2cc3c(Nc4ccc(Cl)c(Cl)c4F)ncnc3cc2OC)CC1 [Poziotinib]
sensitivity of Ex20ins mutations in vivo [1]: sensitive | sensitivity of Ex20ins mutations in vitro [2]: sensitive | sensitivity of mice harboring PDXs with G719A mutations [3]: most sensitive
